“Also recorded” adds a separate entry of the source. Starred links: 1 amine or outer side, 2 acyl side, 3 side chain; linkers in the order of their positions; H or OH if unused. Non-standard residues stand in square brackets, D forms with d. Residues, ends and D or L forms follow the SMILES beside them. *: point of attachment. Dap(4-FSB) = (S)-2-amino-3-(4-(fluorosulfonyl)benzamido)propanoic acid, O=C(NC[C@H](N[*:1])C(=O)[*:2])c1ccc(S(=O)(=O)F)cc1; 7‑MethoxyBenzofuranoic = N-terminus modified by (7-methoxybenzofuran-2-yl)-methanone, COc1cccc2cc(C(=O)*)oc12; Phenoxyacetyl(3-Cl,4-F) = O=C(COc1ccc(F)c(Cl)c1)*; Dap = NC[C@H](N)C(=O)O
Columns and labels:
EphA2-LBD = EphA2-LBD (Homo sapiens, UniProt P29317); experiment: DELFIA displacement assay (displacement of biotinylated 123B9 from EphA2-LBD)
EphA2 [1] = molecular target: T1, EphA2 (Homo sapiens, UniProt P29317); experiment: EphA2 receptor phosphorylation assay in HEK293 cells (immunoprecipitation, anti-phosphotyrosine blot); assay type: cell-based; design: endogenous in cells; PANC-1; conditions: various doses
EphA2 [2] = molecular target: T1, EphA2; experiment: Western blot of total EphA2 and pEphA2 S897 in BxPC3 cells; assay type: cell-based; design: endogenous in cells; host or cells: BxPC3; PANC-1; conditions: 3 hours treatment
BxPC3 cells [3] = experiment: Time-lapse scratch wound cell-migration assay; assay type: cell-based; conditions: 2.5 μM
Experimental: Cell-migration assay: Cells were cultured in 96-well ImageLock plates (Sartorius). Next day, wells were scratched using the WoundMaker (Sartorius). Subsequently, cells were washed twice with PBS and treated with the indicated compounds in RPMI-1640 complete media. Subsequently, cells were imaged every 6 h using IncuCyte S3 (Sartorius) and relative wound areas were analyzed using the algorithm of the imager cell migration software module.

BxPC3 cells [4] = experiment: Time-lapse scratch wound cell invasion assay (Matrigel); assay type: cell-based; conditions: scratch wound through Matrigel, 2.5 μM
Experimental: Cell invasion assay: Matrigel (Corning) was diluted in serum-free RPMI-1640 media (1:100), 50 µL of the mixture was added to ImageLock plate and incubated at 37° C. for 2 h. Next, excess media were aspirated and cells in complete media were plated and left overnight in humidified cell culture incubator. The following day, cell culture plate was aspirated, scratched with the WoundMaker, and washed twice with PBS. Subsequently, the plate was coated with a mixture of Matrigel and cold serum-free RPMI-1640 (1:1) and left in the incubator to solidify for 30 min. Finally, 100 µL of 1.5× compound-media mixture was added to the plate at various concentrations. The healing of the scratches was imaged and calculated similar to the migration assay.

EphA2 [5] = molecular target: T1, EphA2; experiment: Western blot of total EphA2 and pEphA2 S897 in PANC-1 cells; assay type: cell-based; design: endogenous in cells; host or cells: PANC-1
EphA2 [6] = molecular target: T1, EphA2; experiment: Immunofluorescence of EphA2 cellular localization in BxPC3 cells; assay type: cell-based; design: endogenous in cells; host or cells: BxPC3; PANC-1; conditions: 30 min treatment, 1 μM 135H12
Experimental: FIG. 4A-D. Dimeric EphA2 agonists degrade EphA2 receptors in cancer cells. […] BxPC3 cell line was treated with the indicated doses for 3 hours, then cells were lysed and Western blot studies were performed. […] BxPC3 or PANC-1 cells were treated and lysed similar to the previous Western blot. […] EphrinA1-Fc is a clustered natural ligand and used as a positive control. […] Moreover, the receptor band disappeared after 1 hour of treatment. […] Cells were immunostained with EphA2 antibody (light) and nuclei were counterstained with DAPI (dark). […] Images were acquired using confocal Inverted Zeiss 880.
In chamber slides, cells were plated and allowed to adhere overnight in humidified cell culture incubators. The following day, cells were treated with the indicated ligands for 30 min. Subsequently, cells were washed with PBS and fixed with 4% Formaldehyde (Polysciences, Inc.), then blocked and permeabilized with 5% FBS and 0.3% Triton™ X-100 for 1 h. Next, wells were washed and stained with anti-EphA2 antibody, followed by three washes and further incubation with Alexafluor goat anti-mouse 488 secondary antibody (ThermoFisher). Cells were counterstained with DAPI and mounted with Prolong Diamond Antifade (ThermoFisher). Images were acquired with confocal microscope Zeiss 880 Airyscan and processed using Adobe Photoshop CC.

EphA2 [7] = molecular target: T1, EphA2; experiment: Covalent gel shift with EphA2; assay type: biochemical; conditions: compounds incubated 10:1 for 2 hours at room temperature
Experimental: Covalent adduct formation of EphA2 with 147A5 and 147A6, respectively, were confirmed by covalent gel shift. Compounds were incubated 10:1 for 2 hours at room temperature.

T1 sequence (P29317 24-976): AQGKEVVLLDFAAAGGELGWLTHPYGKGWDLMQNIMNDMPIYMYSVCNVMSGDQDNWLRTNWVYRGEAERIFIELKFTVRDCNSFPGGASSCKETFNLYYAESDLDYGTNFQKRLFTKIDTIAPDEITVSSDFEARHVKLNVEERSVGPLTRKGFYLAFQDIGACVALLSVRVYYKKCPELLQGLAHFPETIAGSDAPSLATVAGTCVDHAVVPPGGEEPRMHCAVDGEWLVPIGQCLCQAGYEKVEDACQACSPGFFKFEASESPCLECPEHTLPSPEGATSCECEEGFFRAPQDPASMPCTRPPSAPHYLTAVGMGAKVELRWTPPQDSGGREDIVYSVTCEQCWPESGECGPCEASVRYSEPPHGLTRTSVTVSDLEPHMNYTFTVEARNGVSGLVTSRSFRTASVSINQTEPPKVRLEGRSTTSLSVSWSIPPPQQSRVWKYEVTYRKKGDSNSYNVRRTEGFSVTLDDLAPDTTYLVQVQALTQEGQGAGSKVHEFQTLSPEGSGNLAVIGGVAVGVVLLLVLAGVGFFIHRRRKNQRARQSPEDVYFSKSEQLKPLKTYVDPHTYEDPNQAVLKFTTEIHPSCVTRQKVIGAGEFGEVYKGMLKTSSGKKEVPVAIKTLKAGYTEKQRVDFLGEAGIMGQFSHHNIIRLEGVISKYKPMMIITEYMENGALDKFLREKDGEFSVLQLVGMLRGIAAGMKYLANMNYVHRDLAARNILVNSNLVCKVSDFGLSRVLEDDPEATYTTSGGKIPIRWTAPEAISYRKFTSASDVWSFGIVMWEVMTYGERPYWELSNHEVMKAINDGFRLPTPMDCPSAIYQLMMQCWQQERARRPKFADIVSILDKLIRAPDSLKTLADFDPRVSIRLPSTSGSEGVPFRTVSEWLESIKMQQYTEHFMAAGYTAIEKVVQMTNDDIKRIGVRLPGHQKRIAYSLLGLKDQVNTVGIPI
EphA2-LBD, sequence (P29317 28-206 limits assumed): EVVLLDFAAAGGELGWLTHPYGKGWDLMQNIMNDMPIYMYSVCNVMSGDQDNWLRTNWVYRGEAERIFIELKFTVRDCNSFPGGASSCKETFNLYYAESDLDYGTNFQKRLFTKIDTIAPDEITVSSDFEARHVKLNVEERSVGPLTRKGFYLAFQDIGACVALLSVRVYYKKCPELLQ

Molecule: CC(C)[C@H](NC(=O)[C@H](CC(=O)O)NC(=O)[C@H](CC(=O)O)NC(=O)[C@@H]1CCCN1C(=O)[C@H](Cc1ccc(O)cc1)NC(=O)[C@H](C)NC(=O)[C@H](CN)NC(=O)COc1ccc(F)c(Cl)c1)C(=O)N1CCC[C@H]1C(=O)N[C@@H](Cc1ccccc1)C(=O)N[C@@H](CCCNC(=N)N)C(=O)N1CCC[C@H]1C(N)=O [135F11] ({Phenoxyacetyl(3-Cl,4-F)}-[Dap]AYPDDVPFRP-NH2)
- IC50 (EphA2-LBD): > 200 µM

Molecule: CC(C)[C@H](NC(=O)[C@H](CO)NC(=O)[C@H](CC(=O)O)NC(=O)[C@@H]1CCCN1C(=O)[C@H](Cc1ccc(O)cc1)NC(=O)[C@H](C)NC(=O)[C@H](CO)NC(=O)COc1ccc(F)c(Cl)c1)C(=O)N1C[C@H](O)C[C@H]1C(=O)N[C@@H](Cc1ccc(Cl)cc1)C(=O)N[C@@H](CCCNC(=N)N)C(=O)N1CCC[C@H]1C(N)=O [135G3, (4F,3ClPhOCH2CO)SAYPDSV(Hyp)(4ClPhe)RP-CONH2]
- induction of EphA2 receptor phosphorylation (EphA2 [1]): remarkably increased cellular activity in inducing tyrosine receptor phosphorylation compared to YSA

Molecule: CC(C)[C@H](NC(=O)[C@H](CO)NC(=O)[C@H](CC(=O)O)NC(=O)[C@@H]1CCCN1C(=O)[C@H](Cc1ccc(O)cc1)NC(=O)[C@H](C)NC(=O)[C@H](CO)NC(=O)COc1ccc(F)c(Cl)c1)C(=O)N1C[C@H](O)C[C@H]1C(=O)N[C@@H](Cc1ccc(Cl)cc1)C(=O)N[C@@H](CCCNC(=N)N)C(=O)N1CCC[C@H]1C(=O)NCC(=O)NCCCC[C@H](NC(=O)CNC(=O)[C@@H]1CCCN1C(=O)[C@H](CCCNC(=N)N)NC(=O)[C@H](Cc1ccc(Cl)cc1)NC(=O)[C@@H]1C[C@@H](O)CN1C(=O)[C@@H](NC(=O)[C@H](CO)NC(=O)[C@H](CC(=O)O)NC(=O)[C@@H]1CCCN1C(=O)[C@H](Cc1ccc(O)cc1)NC(=O)[C@H](C)NC(=O)[C@H](CO)NC(=O)COc1ccc(F)c(Cl)c1)C(C)C)C(N)=O [135G4, [(4F,3ClPhOCH2CO)SAYPDSV(HYP)(4ClPhe)RPG]2-K-CONH2]
- degradation of total EphA2 and dephosphorylation of pEphA2 S897 (EphA2 [2]): degraded total EphA2 receptor and phosphorylated pEphA2 S897 at nanomolar concentrations; also recorded: remarkably active in inducing receptor degradation and dephosphorylation of Ser897-EphA2 at sub-micromolar concentrations

Molecule: COc1ccc(C[C@H](NC(=O)[C@H](C)NC(=O)[C@H](CC(C)C)NC(=O)c2oc3c(OC)c(OC)ccc3c2C)C(=O)N2CCC[C@H]2C(=O)N[C@@H](CC(=O)O)C(=O)N[C@@H](C)C(=O)N[C@H](C(=O)N2C[C@H](O)C[C@H]2C(=O)N[C@@H](Cc2ccc(Cl)cc2)C(=O)N[C@@H](CCCNC(=N)N)C(=O)N2CCC[C@H]2C(N)=O)C(C)C)cc1 [135H11, XLA(4MeTyr)PDAV(Hyp)(4ClPhe)RP-CONH2]
- inhibition of cell migration (BxPC3 cells [3]): inhibit cell migration
- inhibition of cell invasion (BxPC3 cells [4]): inhibited cell invasion; also recorded: equally effective in suppressing cell invasion at low micromolar concentration
- degradation of total EphA2 and dephosphorylation of pEphA2 S897 (EphA2 [5]): more effective than the monomer 123B9; also recorded: orders of magnitude more effective than 123B9 in causing EphA2 degradation and suppressing oncogenic pSer897-EphA2
- degradation of total EphA2 and dephosphorylation of pEphA2 S897 (EphA2 [2]): more effective than the monomer 123B9; also recorded: orders of magnitude more effective than 123B9 in causing EphA2 degradation and suppressing oncogenic pSer897-EphA2
- EphA2 cellular localization (EphA2 [6]): located at the cell membrane; also recorded: fluorescence localized at the cell membrane

Molecule: (7-MethoxyBenzofuranoic)LAYPDAVP-Dap(3-FSB)-RP-CONH2 ({7‑MethoxyBenzofuranoic}-LAYPDAVP[Dap(3-FSB)]RP-NH2) [147A6]
- covalent adduct formation with EphA2 (EphA2 [7]): confirmed

Molecule: (7-MethoxyBenzofuranoic)LAYPDAVP-Dap(4-FSB)-RP-CONH2 ({7‑MethoxyBenzofuranoic}-LAYPDAVP[Dap(4-FSB)]RP-NH2; SMILES COc1cccc2cc(C(=O)N[C@@H](CC(C)C)C(=O)N[C@@H](C)C(=O)N[C@@H](Cc3ccc(O)cc3)C(=O)N3CCC[C@H]3C(=O)N[C@@H](CC(=O)O)C(=O)N[C@@H](C)C(=O)N[C@H](C(=O)N3CCC[C@H]3C(=O)N[C@@H](CNC(=O)c3ccc(S(=O)(=O)F)cc3)C(=O)N[C@@H](CCCNC(=N)N)C(=O)N3CCC[C@H]3C(N)=O)C(C)C)oc12) [147A5]
- covalent adduct formation with EphA2 (EphA2 [7]): confirmed

B1: ephrinA1-Fc: clustered natural ligand and used as a positive control (protein)
chain: DRHIVFWNSSNPKFREEDYTVHVQLNDYLDIICPHYEDDSVADAAMERYTLYMVEHQEYVACQPQSKDQVRWNCNRPSAKHGPEKLSEKFQRFTPFILGKEFKEGHSYYYISKPIYHQESQCLKLKVTVNGKITHNPQAHVNPQEKRLQADDPEVQVLHSIGYS
modifications: left off: a dimerising Fc or GST
notes: clustered natural ligand and used as a positive control
- EphA2 cellular localization (EphA2 [6]): punctuated fluorescence was observed in the cytoplasm

Source: patent publication US20210221843A1, “EPHA2 AGONISTS AND USES THEREOF” (THE REGENTS OF THE UNIVERSITY OF CALIFORNIA, priority 2018, published 2021)
